One test has as its system CD8+ cells. Particulars: LLC-tumor-bearing mice; ref [8]; cited from earlier work.
Test [1] concerns S100A8-mediated cell migration. Particulars: ref [8]; cited from earlier work. The text has this:
VEGF is another NFκB-mediated re ...

The subject of a further test is TLR4. Conditions: ref [33], [34]; cited from earlier work. The text has this: The difference between TAK-242 and our inhibitory peptides is the target molecules. […] Qin et al. previously generated two peptibodies, peptide-Fc fusion proteins, targeting mouse MDSCs using a competitive peptide phage display platform. Peptibodies recognize the cell surface of mouse MDSCs. Although peptibodies also recognize S100A9, mouse MDSCs ar ...

For test [2], the system named is SW480-transplanted xenograft. In words: Tumor growth in SW480-transplanted xenograft model. Type of test: in vivo, Balb nu/nu mice. Particulars: SW480 xenograft, various concentrations every 3 days, *P < 0.05 vs control.
For test [3], the system named is tumor cells and macrophages. In words: Cytokine/chemokine induction in tumor cells and macrophages. Type of test: cell-based. Conditions: possible mechanism scheme, Fig. 7I.
The target in a further test is T1, TLR4/MD-2 complex (Homo sapiens, UniProt O00206+Q9Y6Y9).
T1 construct: TLR4/MD-2 recombinant protein (2 µg/ml) was added to each well
The test is described as follows: TLR4/MD-2 binding to immobilized tetravalent ILVIK (ELISA). Particulars: various TLR4/MD-2 concentrations, one representative of three experiments (Fig. 7F). Here is the method:
S100A8 recombinant protein was purified as previously described. These proteins were immobilized on Maxisorp plates (Thermo Fisher Scientific, Waltham, MA, USA), followed by blocking with protein-free blocking buffer (Thermo Fisher Scientific). TLR4/MD-2 recombinant proteins with various concentrations of candidate peptides were then added to the indicated S100A8-immobilized ELISA plates for 2 h. The plates were washed, incubated with anti-TLR4 antibody, and HRP-conjugated secondary antibody, followed by the addition of substrate. The reaction was stopped by addition a 2N H2SO4 solution. Absorbance OD450/OD650 was measured using a microplate reader (Thermo Fisher Scientific). Maxisorp plates were also used for peptide coating. After blocking with protein-free blocking buffer, the coated plates were washed, and TLR4/MD-2 recombinant protein (2 µg/ml) was added to each well. The plates were incubated with a TLR4 antibody followed by horseradish peroxidase (HRP)-labeled anti-rabbit IgG. […] The amount of interleukin-8 (IL-8) or VEGF in the supernatants were analyzed by ELISA kits (R&D Systems, Mineapolis, MN) according to the manufacturer’s instructions.
Fig. 7 Isolation of multivalent S100A8 inhibitory peptides using divalent peptide libraries based on the sequences of peptide3A5. […] The binding affinities to TLR4/MD-2 complex were determined using an ELISA-based assay. […]
(In general: ELISA stands for enzyme-linked immunosorbent assay.)

Test [4] concerns SW480 cells. In words: qPCR, S100A8-mediated IL-8 and VEGF mRNA induction in SW480 cells. It is filed as cell-based, human. The procedure: SW480 cells were treated with S100A8 in Dulbecco’s Modified Eagle Medium/HamF12 supplemented with 0.1% bovine serum albumin for cytokine induction. Total RNA was extracted using the RNeasy Mini Plus (Qiagen, Hilden, Germany). Complementary DNA was synthesized using the PrimeScript 1st Strand Synthesis kit (Takara Bio, Japan). Quantitative PCR (qPCR) analysis was performed using the PowerUp^TM SYBR^TM Green mixture (Thermo Fisher Scientific) and the StepOnePlus Real Time PCR System (Thermo Fisher Scientific). Gene expression levels were calculated from Ct values, and the relationship between the Ct value and the logarithm of the copy number of a target gene was confirmed to be on a linear line using the corresponding isolated DNA and its serial dilutions as a standard. Thus, the gene expression levels of IL-8 and VEGF were normalized against that of β-actin in each sample. The following primers were used; β-actin, 5′-[…]-3′ and 5′-[…]-3′; IL-8, 5′-[…]-3′ and 5′-[…]-3′; VEGF, 5′-[…]-3′ and 5′-[…]-3′.
(§1) Fig. 2 Identification of S100A8 binding sites to human TLR4/MD-2. […] TLR4/MD-2 recombinant proteins were immobilized to the ELISA plate. After blocking, a full length or deletion mutant of S100A8 was added to the plate. The more detailed methods are described in Materials and Methods. […] B A series of overlapping S100A8 synthetic peptides. The TLR4/MD-2 recombinant proteins were added to each well of peptide immobilized plates. The affinity to TLR4/MD-2 was determined. Data are shown as mean ± SD. C The competitive activity was determined using ELISA. Data are shown as mean ± SD. D The TLR4/MD-2 was mixed with S100A8 with/without the indicated peptides, and immunoprecipitated using an anti-TLR4 antibody. TLR4 or S100A8 was visualized. Similar results were obtained in three independent experiments. […] Total RNAs from SW480 cells with/without treatment of the peptide candidates were extracted and qPCR analysis was performed using relevant primer sets and SYBR green. Relative expression levels were compared. […] TEXT PRINTED IN THE PICTURE: (A) Full length: TLR4/MD-2 binding: + | (A) S100A8-ΔC: TLR4/MD-2 binding: − | (A) S100A8-N: TLR4/MD-2 binding: −
(§2) Fig. 4 Improvement of competitive inhibition activity by divalent peptide3A5. A The binding capacity was measured at the indicated concentration using an ELISA-based assay. Similar results were obtained in three independent experiments. B SW480 cells were pretreated with 2.5 µM of divalent peptide3A5, and then stimulated with human S100A8 recombinant protein. After 30 min, cell lysates were subjected to western blotting using the indicated antibody. The divalent peptide#3 or peptide3A5 reduced the expression of S100A8-mediated IL-8 (C) and VEGF (D) induction. Total RNAs from SW480 cells with/without treatment of the peptide candidates were extracted and qPCR analysis was performed using relevant primer sets and SYBR green. Relative expression levels were compared. Peptide #3 suppresses S100A8-mediated IL-8(E) and VEGF (F) secretion in SW480 cells.

In test [5] the test system is SW480 cells. In words: S100A8-mediated cell migration of SW480 cells. Type of test: cell-based, human. Particulars: Supplementary Fig. 1B.
For the next test, the system named is S100A8-TLR4/MD-2 complex. In words: Competitive inhibition of S100A8-TLR4/MD-2 binding (ELISA, S100A8 immobilized; also immunoprecipitation). Details: species or system human. Conditions: ELISA (Fig. 2C), immunoprecipitation with anti-TLR4 antibody (Fig. 2D). The procedure:
(§3) S100A8 recombinant protein was purified as previously described. These proteins were immobilized on Maxisorp plates (Thermo Fisher Scientific, Waltham, MA, USA), followed by blocking with protein-free blocking buffer (Thermo Fisher Scientific). TLR4/MD-2 recombinant proteins with various concentrations of candidate peptides were then added to the indicated S100A8-immobilized ELISA plates for 2 h. The plates were washed, incubated with anti-TLR4 antibody, and HRP-conjugated secondary antibody, followed by the addition of substrate. The reaction was stopped by addition a 2N H2SO4 solution. Absorbance OD450/OD650 was measured using a microplate reader (Thermo Fisher Scientific). Maxisorp plates were also used for peptide coating. After blocking with protein-free blocking buffer, the coated plates were washed, and TLR4/MD-2 recombinant protein (2 µg/ml) was added to each well. The plates were incubated with a TLR4 antibody followed by horseradish peroxidase (HRP)-labeled anti-rabbit IgG. For detection of IL8 and VEGF in culture supernatants, SW480 cells were pretreated with the indicated peptides, and followed by stimulation with S100A8 for 24 h. The amount of interleukin-8 (IL-8) or VEGF in the supernatants were analyzed by ELISA kits (R&D Systems, Mineapolis, MN) according to the manufacturer’s instructions.
as §1, §2

The test system of the next test is human TLR4/MD-2 complex. The test is described as follows: ELISA, TLR4/MD-2 binding to immobilized S100A8-derived peptides (overlapping peptides, alanine scan). Conditions: ELISA, peptide immobilized, TLR4/MD-2 2 µg/ml. The procedure: as §3, §1
Fig. 3 Identification of high affinity peptides to TLR4/MD-2 using alanine scanning based on the peptide #3 amino acid sequences. A Lists of peptides used for alanine scanning. […] Similar results were obtained in three independent experiments.

Test [6] deals with SW480 cells. In words: ELISA, IL-8 and VEGF secretion of SW480 cells. Conditions: peptide pretreatment, S100A8 24 h, supernatant ELISA, *P < 0.05 vs S100A8. Type of test: cell-based, human. The procedure: as §3

Consider four molecules from article PMC10021052, “Novel multivalent S100A8 inhibitory peptides attenuate tumor progression and metastasis by inhibiting the TLR4-dependent pathway” (Cancer Gene Therapy, 2023).

Positions of bridges follow the written chain, without caps; N, C: chain ends. Non-standard residues stand in square brackets, D forms with d. Residues, ends and D or L forms follow the SMILES beside them. Chains are numbered I, II in the order given. ξ: configuration not given here. ξK = NCCCCC(N)C(=O)O; Ahx = NCCCCCC(=O)O

T1 sequence (O00206 24-631 limits assumed): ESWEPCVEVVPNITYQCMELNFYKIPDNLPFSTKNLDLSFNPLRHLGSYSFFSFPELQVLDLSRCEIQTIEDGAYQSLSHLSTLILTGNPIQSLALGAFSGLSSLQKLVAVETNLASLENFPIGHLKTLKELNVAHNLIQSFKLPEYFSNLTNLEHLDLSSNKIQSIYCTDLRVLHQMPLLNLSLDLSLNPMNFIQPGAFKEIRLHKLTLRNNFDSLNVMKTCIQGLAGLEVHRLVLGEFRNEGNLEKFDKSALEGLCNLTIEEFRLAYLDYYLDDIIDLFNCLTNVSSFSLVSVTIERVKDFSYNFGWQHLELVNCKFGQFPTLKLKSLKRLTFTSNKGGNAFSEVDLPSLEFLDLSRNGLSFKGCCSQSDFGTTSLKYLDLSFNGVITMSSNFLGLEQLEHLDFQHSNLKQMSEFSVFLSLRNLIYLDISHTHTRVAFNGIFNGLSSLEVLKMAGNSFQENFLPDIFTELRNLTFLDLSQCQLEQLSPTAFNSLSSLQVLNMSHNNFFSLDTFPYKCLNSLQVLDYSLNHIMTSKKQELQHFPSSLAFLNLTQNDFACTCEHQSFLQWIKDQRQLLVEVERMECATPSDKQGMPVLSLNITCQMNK
T1 sequence (Q9Y6Y9 17-160 partner limits assumed): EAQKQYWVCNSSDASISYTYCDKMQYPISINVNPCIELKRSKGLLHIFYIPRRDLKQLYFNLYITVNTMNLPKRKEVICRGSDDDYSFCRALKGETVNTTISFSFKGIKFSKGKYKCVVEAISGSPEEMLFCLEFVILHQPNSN

Consider `CCCCCC/C=C\CCCCCCCCCC(=O)N[C@H]1[C@H](OC[C@H]2O[C@H](OP(=O)(O)O)[C@H](NC(=O)CC(=O)CCCCCCCCCCC)[C@@H](OCCCCCCCCCC)[C@@H]2O)O[C@H](COC)[C@@H](OP(=O)(O)O)[C@@H]1OCC[C@@H](CCCCCCC)OC` [Eritoran, reference compound], for which the “intratumoral infiltration of CD8+ cells, Eritoran” value in the test with CD8+ cells was “increased intratumoral infiltration of CD8^+ cells”. In addition, the “S100A8-mediated cell migration, Eritoran” value in [1] is “inhibited S100A8-mediated cell migration”.
Regarding `CCOC(=O)C1=CCCC[C@H]1S(=O)(=O)Nc1ccc(F)cc1Cl` [TAK-242, ethyl (6R)-6-[N-(2-Chloro-4-fluorophenyl)sulfamoyl]cyclohex-1-ene-1-carboxylate], the “TLR4 inhibition, site” value in the test on TLR4 is “inhibits TLR4 at intracellular domains”.
Broadly, the Kd is the equilibrium constant for the complex coming apart. `CC[C@H](C)[C@H](NC(C)=O)C(=O)N[C@@H](CC(C)C)C(=O)N[C@H](C(=O)N[C@H](C(=O)N[C@@H](CCCCN)C(=O)NCCCCCC(=O)NCCCCC(NC(=O)CCCCCNC(=O)[C@H](CCCCN)NC(=O)[C@@H](NC(=O)[C@@H](NC(=O)[C@H](CC(C)C)NC(=O)[C@@H](NC(C)=O)[C@@H](C)CC)C(C)C)[C@@H](C)CC)C(=O)NCCCCC(NC(=O)C(CCCCNC(=O)CCCCCNC(=O)[C@H](CCCCN)NC(=O)[C@@H](NC(=O)[C@@H](NC(=O)[C@H](CC(C)C)NC(=O)[C@@H](NC(C)=O)[C@@H](C)CC)C(C)C)[C@@H](C)CC)NC(=O)CCCCCNC(=O)[C@H](CCCCN)NC(=O)[C@@H](NC(=O)[C@@H](NC(=O)[C@H](CC(C)C)NC(=O)[C@@H](NC(C)=O)[C@@H](C)CC)C(C)C)[C@@H](C)CC)C(N)=O)[C@@H](C)CC)C(C)C` (some centres unmarked) [Tetravalent ILVIK] (I: Ac-ILVIK[Ahx][ξK][ξK]-NH2 / II: Ac-ILVIK[Ahx][ξK] / III: Ac-ILVIK[Ahx] / IV: Ac-ILVIK[Ahx]; amide I:7-IV:C, I:8-II:C, II:7-III:C): the “tumor growth, multivalent ILVIK” value is given as “inhibits tumor growth” in test [2] and “more effectively inhibited tumor progression” in [2] (listed as tetravalent ILVIK). Besides, the induction of cytokines/chemokines entry in [3] was “suppress the induction of cytokines/chemokines in both tumor cells and macrophages”. This molecule returned a Kd at TLR4/MD-2 complex of 4.58 to 8.78 nM.
With “FQEFLILVIK [Peptide #3, S100A8-derived peptide […] from the carboxyl terminal region]”, in the test on SW480 cells [4] (no S100A8), the “IL-8 induction by peptide alone (agonism)” value is “failed to induce IL-8 production”. Also, in the test on SW480 cells [4] (qPCR, normalized to β-actin), the “S100A8-mediated VEGF induction (mRNA)” value is given as “suppressed S100A8-induced VEGF induction”. In the test with SW480 cells [4] (qPCR, normalized to β-actin, *P < 0.05 vs S100A8), the “S100A8-mediated IL-8 induction (mRNA)” value is “reduces the expression of S100A8-mediated IL-8 induction”. Also, the S100A8-mediated cell migration entry in the test with SW480 cells [5] is listed as “significantly inhibited”. Besides, the “competition for S100A8-TLR4/MD-2 binding” value with S100A8-TLR4/MD-2 complex was “competed for binding between S100A8 and the TLR4/MD-2 complex”. In addition, the “TLR4/MD-2 binding of peptide” value was “most strongly bound to the TLR4/MD-2 complex among a series of S100A8-derived peptides” in the test with human TLR4/MD-2 complex and “could bind to TLR4/MD-2” in the test on human TLR4/MD-2 complex (listed as peptide #3). Besides, the “S100A8-mediated IL-8 secretion” value with SW480 cells [6] is reported as “suppresses S100A8-mediated IL-8 secretion”; with SW480 cells [6] (listed as peptide#3), “suppressed”. For the same molecule, the “S100A8-mediated VEGF secretion” value in the test on SW480 cells [6] is reported as “suppresses”.
